Results on 31 compounds are retold here after US7595398B2, “N-(5-membered aromatic ring)-amido anti-viral compounds” (SmithKline Beecham Corporation, priority 2005, dated 2009).

In the experiment the test system is HCV replicon I389luc-ubi-neo/NS3-3′/ET in ET (Huh-lucubineo-ET) cells; screening for HCV RNA dependent RNA polymerase. The experiment is described as follows: Replicon Assay (luciferase, ET cell line Huh-lucubineo-ET). In kind it is cell-based. The conditions noted are these: Hepatitis C virus; inhibition of replication relative to no compound control; test concentration of 10 μM according to the fitted equation; luciferase 48-72 hours. Summed up:
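Huh-derived ET cells stably carrying an I389luc-ubi-neo/NS3-3′/ET HCV replicon with a luciferase-ubiquitin-neomycin phosphotransferase fusion and adaptive NS3-5B mutations were cultured in DMEM with 10% fetal calf serum and 250 μg/mL G418. Cells were seeded at 0.5-1.0×10^4 cells/well in 96 well plates and given compound after 24 hrs. Luciferase was read 48-72 hours later with Bright-Glo reagents, and replication inhibition was expressed relative to untreated controls.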
Take `O=C(Nc1nc(-c2cccc(NCC3CCCC3)c2)cs1)[C@@H]1CCCN1C(=O)OCc1ccccc1` [Compound 5319, 2-{4-[3-(Cyclopentylmethyl-amino)-phenyl]-thiazol-2-ylcarbamoyl}-pyrrolidine-1-carboxylic acid benzyl ester]: the inhibition at 10 µM was 67.4%.

Consider `O=C(Nc1nc(-c2ccc(S(=O)(=O)NC3CC3)cc2)cs1)C1CCCN1C(=O)OCc1ccccc1` (stereo not shown) [Compound 5378, 2-[4-(4-Cyclopropylsulfamoyl-phenyl)-thiazol-2-ylcarbamoyl]-pyrrolidine-1-carboxylic acid benzyl ester], for which the inhibition at 10 µM was 98.3%.

Consider `O=C(Nc1ccc(-c2cnc(NC(=O)[C@@H]3CCCN3C(=O)OCc3ccccc3)s2)cc1)C1CCCC1` [Compound 5110, 2-{5-[4-(Cyclopentanecarbonyl-amino)-phenyl]-thiazol-2-ylcarbamoyl}-pyrrolidine-1-carboxylic acid benzyl ester], for which testing at 10 µM gave an inhibition of 89.6%.

With `O=C(O)c1ccc(-c2csc(NC(=O)[C@@H]3CCCN3C(=O)OCc3ccccc3)n2)cc1` [Compound 5106, 2-[4-(4-Carboxy-phenyl)-thiazol-2-ylcarbamoyl]-pyrrolidine-1-carboxylic acid benzyl ester], 10 µM produced 46.3% inhibition.

In turn, `Cc1ccc(Cc2cnc(NC(=O)[C@@H]3CCCN3C(=O)OCc3ccccc3)s2)cc1` [Compound 5040, 2-[5-(4-Methyl-benzyl)-thiazol-2-ylcarbamoyl]-pyrrolidine-1-carboxylic acid benzyl ester] had an inhibition at 10 µM of 22.5%.

Consider `O=C(Nc1cccc(-c2cnc(NC(=O)[C@@H]3CCCN3C(=O)OCc3ccccc3)s2)c1)C1CC1` [Compound 5108, 2-{5-[3-(Cyclopropanecarbonyl-amino)-phenyl]-thiazol-2-ylcarbamoyl}-pyrrolidine-1-carboxylic acid benzyl ester], for which the inhibition at 10 µM was found to be 98.9%.

Regarding `COC(=O)N1CCC[C@H]1C(=O)Nc1nc(-c2ccc(C(=O)NC3CC3)cc2)cs1` [Compound 5373, 2-[4-(4-Cyclopropylcarbamoyl-phenyl)-thiazol-2-ylcarbamoyl]-pyrrolidine-1-carboxylic acid methyl ester], 10 µM produced 81.5% inhibition.

In turn, `CCC(=O)Nc1ccc(-c2csc(NC(=O)[C@@H]3CCCN3C(=O)OCc3ccccc3)n2)cc1` [Compound 5017, 2-[4-(4-Propionylamino-phenyl)-thiazol-2-ylcarbamoyl]-pyrrolidine-1-carboxylic acid benzyl ester] had an inhibition at 10 µM of 99.7%.

`O=C(Nc1ccc(-c2csc(NC(=O)[C@@H]3CCCN3C(=O)OCc3ccccc3)n2)cc1)c1ccc(Cl)cc1` [Compound 5036, 2-{4-[4-(4-Chloro-benzoylamino)-phenyl]-thiazol-2-ylcarbamoyl}-pyrrolidine-1-carboxylic acid benzyl ester]: testing at 10 µM gave an inhibition of 100%.

Take `O=C(Nc1nc(-c2ccc(Br)cc2)cs1)[C@@H]1CCCN1C(=O)OCc1ccccc1` [Compound 5097, 2-[4-(4-Bromo-phenyl)-thiazol-2-ylcarbamoyl]-pyrrolidine-1-carboxylic acid benzyl ester]: the inhibition at 10 µM is 43.3%.

In the case of `O=C(NC1CC1)c1ccc(-c2csc(NC(=O)[C@@H]3CCN3C(=O)OCc3ccccc3)n2)cc1` [Compound 5301, 2-[4-(4-Cyclopropylcarbamoyl-phenyl)-thiazol-2-ylcarbamoyl]-azetidine-1-carboxylic acid benzyl ester], testing at 10 µM gave an inhibition of 100%.

In the case of `O=C(Nc1nc(-c2cccc(N(CC3CC3)CC3CC3)c2)cs1)[C@@H]1CCCN1C(=O)OCc1ccccc1` [Compound 5383, 2-{4-[3-(Bis-cyclopropylmethyl-amino)-phenyl]-thiazol-2-ylcarbamoyl}-pyrrolidine-1-carboxylic acid benzyl ester], testing at 10 µM gave an inhibition of 47%.

In turn, `O=C(Nc1ncc(Cc2cccc([N+](=O)[O-])c2)s1)[C@@H]1CCCN1C(=O)OCc1ccccc1` [Compound 5047, 2-[5-(3-Nitrobenzyl)-thiazol-2-ylcarbamoyl]-pyrrolidine-1-carboxylic acid benzyl ester] displayed an inhibition at 10 µM of 37.7%.

`O=C(Nc1nc(-c2ccc(-n3nncc3-c3ccccc3)cc2)cs1)[C@@H]1CCCN1C(=O)OCc1ccccc1` [Compound 5104, 2-{4-[4-(5-Phenyl-[1,2,3]triazol-1-yl)-phenyl]-thiazol-2-ylcarbamoyl}-pyrrolidine-1-carboxylic acid benzyl ester] came in with an inhibition at 10 µM of 97.3%.

On to `O=C(NC1CC1)c1ccc(-c2csc(NC(=O)[C@@H]3CCCN3C(=O)C3(c4ccccc4)CC3)n2)cc1` [Compound 5371, 1-(1-Phenyl-cyclopropanecarbonyl)-pyrrolidine-2-carboxylic acid [4-(4-cyclopropylcarbamoyl-phenyl)-thiazol-2-yl]-amide], for which the inhibition at 10 µM turned out to be 100%.

Compound `O=C(Nc1nc(-c2c(F)cccc2F)cs1)[C@@H]1CCCN1C(=O)OCc1ccccc1` [Compound 5059, 2-[4-(2,6-Difluoro-phenyl)-thiazol-2-ylcarbamoyl]-pyrrolidine-1-carboxylic acid benzyl ester] came in with an inhibition at 10 µM of 88%.

As to `O=C(NC1CC1)c1ccc(-c2csc(NC(=O)[C@@H]3CCCN3C(=O)NCc3ccccc3)n2)cc1` [Compound 5342, Pyrrolidine-1,2-dicarboxylic acid 1-benzylamide 2-{[4-(4-cyclopropylcarbamoyl-phenyl)-thiazol-2-yl]-amide}], the inhibition at 10 µM stood at 95.2%.

Consider `CC(C)Cc1ccc(-c2csc(NC(=O)[C@@H]3CCCN3C(=O)OCc3ccccc3)n2)cc1` [Compound 5102, 2-[4-(4-Isobutyl-phenyl)-thiazol-2-ylcarbamoyl]-pyrrolidine-1-carboxylic acid benzyl ester], for which the inhibition at 10 µM turned out to be 9.8%.

In the case of `O=C(Nc1cccc(-c2csc(NC(=O)[C@@H]3CCCN3C(=O)OCc3ccccc3)n2)c1)c1ccc(Cl)cc1` [Compound 5038, 2-{4-[3-(4-Chloro-benzoylamino)-phenyl]-thiazol-2-ylcarbamoyl}-pyrrolidine-1-carboxylic acid benzyl ester], the inhibition at 10 µM stood at 100%.

On to `CC(C)(C)c1csc(NC(=O)[C@@H]2CCCN2C(=O)OCc2ccccc2)n1` [Compound 5360, 2-(4-tert-Butyl-thiazol-2-ylcarbamoyl)-pyrrolidine-1-carboxylic acid benzyl ester], for which the inhibition at 10 µM was determined as 54%.

As for `O=C(NCCCN1CCOCC1)c1ccc(-c2csc(NC(=O)[C@@H]3CCCN3C(=O)OCc3ccccc3)n2)cc1` [Compound 5324, 2-{4-[4-(3-Morpholin-4-yl-propylcarbamoyl)-phenyl]-thiazol-2-ylcarbamoyl}-pyrrolidine-1-carboxylic acid benzyl ester], the inhibition at 10 µM is 100%.

Compound `O=C(Nc1ncc(Cc2ccc(Cl)cc2)s1)[C@@H]1CCCN1C(=O)OCc1ccccc1` [Compound 5063, 2-[5-(4-Chloro-benzyl)-thiazol-2-ylcarbamoyl]-pyrrolidine-1-carboxylic acid benzyl ester] gave an inhibition at 10 µM of 51.7%.

In turn, `O=C(NC1CCCC1)c1ccc(-c2cnc(NC(=O)[C@@H]3CCCN3C(=O)OCc3ccccc3)s2)cc1` [Compound 5368, 2-[5-(4-Cyclopentylcarbamoyl-phenyl)-thiazol-2-ylcarbamoyl]-pyrrolidine-1-carboxylic acid benzyl ester] yielded an inhibition at 10 µM of 50.8%.

Compound `O=C(Nc1nc(-c2ccc(NS(=O)(=O)c3ccccc3)cc2)cs1)C1CCCN1C(=O)OCc1ccccc1` (stereo not shown) [Compound 5027, 2-[4-(4-Benzenesulfonylamino-phenyl)-thiazol-2-ylcarbamoyl]-pyrrolidine-1-carboxylic acid benzyl ester] had an inhibition at 10 µM of 99.7%.

As to `CC(=O)Nc1cccc(-c2csc(NC(=O)[C@@H]3CCCN3C(=O)OCc3ccccc3)n2)c1` [Compound 5015, 2-[4-(3-Acetylamino-phenyl)-thiazol-2-ylcarbamoyl]-pyrrolidine-1-carboxylic acid benzyl ester], the inhibition at 10 µM stood at 99.4%.

As for `O=C(Nc1ncc(Cc2cccc(Cl)c2Cl)s1)[C@@H]1CCCN1C(=O)OCc1ccccc1` [Compound 5012, 2-[5-(2,3-Dichloro-benzyl)-thiazol-2-ylcarbamoyl]-pyrrolidine-1-carboxylic acid benzyl ester], the inhibition at 10 µM worked out at 1.01%.

Compound `O=C(Nc1nc(-c2ccco2)cs1)[C@@H]1CCCN1C(=O)OCc1ccccc1` [Compound 5347, 2-(4-Furan-2-yl-thiazol-2-ylcarbamoyl)-pyrrolidine-1-carboxylic acid benzyl ester] came in with an inhibition at 10 µM of 94.7%.

Compound `O=C(NC1CC1)c1ccc(-c2csc(NC(=O)[C@@H]3COCN3C(=O)OCc3ccccc3)n2)cc1` [Compound 5313, 4-[4-(4-Cyclopropylcarbamoyl-phenyl)-thiazol-2-ylcarbamoyl]-oxazolidine-3-carboxylic acid benzyl ester] returned an inhibition at 10 µM of 100%.

The compound `CN(C(=O)c1ccc(-c2csc(NC(=O)[C@@H]3CCCN3C(=O)OCc3ccccc3)n2)cc1)C1CCCCC1` [Compound 5332, 2-{4-[4-(Cyclohexyl-methyl-carbamoyl)-phenyl]-thiazol-2-ylcarbamoyl}-pyrrolidine-1-carboxylic acid benzyl ester] came in with an inhibition at 10 µM of 99.7%.

Compound `O=C(Nc1ccc(-c2csc(NC(=O)C3CCCN3C(=O)OCc3ccccc3)n2)cc1)c1ccccc1` (stereo not shown) [Compound 5037, 2-[4-(4-Benzoylamino-phenyl)-thiazol-2-ylcarbamoyl]-pyrrolidine-1-carboxylic acid benzyl ester] came in with an inhibition at 10 µM of 100%.

The compound `O=C(NC1CCNC1)c1ccc(-c2csc(NC(=O)[C@@H]3CCCN3C(=O)OCc3ccccc3)n2)cc1` (stereo partly shown) [Compound 5322, 2-{4-[4-(Pyrrolidin-3-ylcarbamoyl)-phenyl]-thiazol-2-ylcarbamoyl}-pyrrolidine-1-carboxylic acid benzyl ester] displayed an inhibition at 10 µM of 100%.
